Columns and labels:
[1] = test system: sulfonylurea (SUR) receptors of KATP channels; conditions: rat cerebral cortex, hippocampus, and striatum; cited from earlier work
[2] = test system: rat pancreatic β-cells; experiment: Nystatin-perforation whole-cell recording in current-clamp mode (membrane potential); format: cell-based; conditions: 100 μM; for effect on membrane potential: in the presence of 10 μM nifedipine
Description: (§1) Pancreatic β-cell isolation. Isolation of rat islets was performed as previously described. In short, male adult rats (Wistar) were anesthetized with diethyl ether, and 10 ml of Hank's buffered saline (HBSS) containing collagenase (200 U/ml, Wako Chem., Japan) was injected into the common bile duct. The pancreas, swollen with digestion solution, was quickly excised and incubated in a plastic culture bottle for 20 min at 37° C. The suspension obtained by shaking the bottle was filtered through 0.5 mm metal mesh and washed with HBSS, which included 2% bovine serum albumin (BSA). […] After washing with HBSS, which contained 2% BSA, islets were cultured for 24 h with 5% CO2 in the tissue culture medium. Separation of islets was carried out using dispase (1000 U/ml, Godo Shusei, Japan) as previously described. Separated cells were again cultured for 1-4 days. […] Patch-clamp recordings. Cultured β-cells were kept in a 35-mm Petri dish, and the dish was placed on the stage of an inverted microscope (IMT-2, Olympus, Tokyo, Japan). Membrane potentials and membrane currents were measured using a patch-clamp amplifier (EPC-7, List Electronic, Darmstadt, Germany). The nystatin-perforation method was used to measure the membrane potential and the standard method was used to measure whole-cell currents. […] In order to measure whole-cell membrane current, voltage ramp pulses from −90 to −50 mV were repeatedly applied using a ramp pulse generator (SET-2100, Nihon Kohden, Tokyo, Japan). […] Series resistance below 12 MΩ was accepted. Single channel current recordings were carried out by the cell-attached and inside-out configurations. All electrophysiological experiments were carried out at room temperature (22±1° C.). Data of single channel currents were low-pass filtered at 1 KHz, digitized at 10 KHz and analyzed using a single channel current analysis program (Clampfit 9.2, Axon Instruments, Foster City, Calif.). The concentration-inhibition curve created by iptakalim was fitted using Origin 5.0 (Microcal, North Hampton, Mass.).
Solutions and Drugs. […]

[3] = target: T1, β-cell KATP channels (Rattus norvegicus, UniProt P70673+Q09429); experiment: Cell-attached single channel recording of KATP channels; format: cell-based; set-up: the effects of iptakalim on KATP channels expressed in rat pancreatic β-cells were examined; endogenous in cells; host or cells: primary pancreatic β-cells from male adult Wistar rats
T1 sequence (P70673 whole entry): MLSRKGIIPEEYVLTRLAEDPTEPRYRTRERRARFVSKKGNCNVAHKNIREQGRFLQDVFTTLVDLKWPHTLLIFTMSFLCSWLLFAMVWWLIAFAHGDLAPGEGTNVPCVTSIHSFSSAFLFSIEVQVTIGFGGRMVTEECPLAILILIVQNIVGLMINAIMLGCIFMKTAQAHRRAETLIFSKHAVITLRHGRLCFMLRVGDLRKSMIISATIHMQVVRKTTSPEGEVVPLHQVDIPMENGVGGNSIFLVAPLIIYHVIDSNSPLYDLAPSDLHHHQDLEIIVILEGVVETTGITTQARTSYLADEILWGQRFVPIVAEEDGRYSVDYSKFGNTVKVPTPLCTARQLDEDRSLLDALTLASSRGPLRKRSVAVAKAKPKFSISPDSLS
T1 sequence (Q09429 whole entry): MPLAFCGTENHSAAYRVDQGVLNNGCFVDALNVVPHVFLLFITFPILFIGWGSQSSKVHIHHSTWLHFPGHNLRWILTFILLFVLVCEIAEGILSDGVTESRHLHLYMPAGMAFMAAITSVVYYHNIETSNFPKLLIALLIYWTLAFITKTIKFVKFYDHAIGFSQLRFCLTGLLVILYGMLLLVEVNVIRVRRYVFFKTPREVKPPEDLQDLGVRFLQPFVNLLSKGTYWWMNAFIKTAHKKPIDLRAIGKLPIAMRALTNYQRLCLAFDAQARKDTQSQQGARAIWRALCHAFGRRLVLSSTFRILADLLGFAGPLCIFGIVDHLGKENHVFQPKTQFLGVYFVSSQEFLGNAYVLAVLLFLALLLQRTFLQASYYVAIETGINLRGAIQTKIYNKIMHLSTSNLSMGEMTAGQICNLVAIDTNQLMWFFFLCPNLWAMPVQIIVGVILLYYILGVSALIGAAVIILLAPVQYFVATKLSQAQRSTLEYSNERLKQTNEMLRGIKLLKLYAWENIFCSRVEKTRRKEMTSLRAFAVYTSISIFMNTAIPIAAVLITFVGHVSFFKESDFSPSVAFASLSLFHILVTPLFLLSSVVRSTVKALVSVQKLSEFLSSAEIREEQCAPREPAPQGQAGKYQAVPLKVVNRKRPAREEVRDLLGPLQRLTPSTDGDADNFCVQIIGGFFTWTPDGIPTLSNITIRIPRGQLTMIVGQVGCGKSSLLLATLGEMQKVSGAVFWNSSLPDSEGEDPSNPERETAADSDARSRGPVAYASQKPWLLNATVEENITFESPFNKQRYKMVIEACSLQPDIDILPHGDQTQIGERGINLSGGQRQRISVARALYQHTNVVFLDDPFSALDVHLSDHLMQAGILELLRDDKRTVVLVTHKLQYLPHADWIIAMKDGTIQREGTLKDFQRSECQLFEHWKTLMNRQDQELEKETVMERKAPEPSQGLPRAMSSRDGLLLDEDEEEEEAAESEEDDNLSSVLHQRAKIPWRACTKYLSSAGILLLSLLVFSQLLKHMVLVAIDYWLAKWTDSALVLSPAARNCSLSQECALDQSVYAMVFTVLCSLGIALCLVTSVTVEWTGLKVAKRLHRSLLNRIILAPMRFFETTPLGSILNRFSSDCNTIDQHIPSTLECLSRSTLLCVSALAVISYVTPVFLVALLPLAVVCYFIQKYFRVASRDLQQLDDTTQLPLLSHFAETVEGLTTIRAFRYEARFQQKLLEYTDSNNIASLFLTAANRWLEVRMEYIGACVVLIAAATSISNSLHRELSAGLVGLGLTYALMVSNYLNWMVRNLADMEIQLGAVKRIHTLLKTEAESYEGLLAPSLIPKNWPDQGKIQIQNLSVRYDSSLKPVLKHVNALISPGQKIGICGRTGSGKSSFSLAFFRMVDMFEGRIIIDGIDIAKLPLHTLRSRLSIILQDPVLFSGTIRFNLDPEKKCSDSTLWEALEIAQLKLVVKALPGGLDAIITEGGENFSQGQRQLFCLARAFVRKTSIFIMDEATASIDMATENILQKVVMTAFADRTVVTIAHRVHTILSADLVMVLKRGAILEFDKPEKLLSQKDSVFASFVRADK
Description: as §1
(§2) Solutions and Drugs. The standard external solution contained (in mM): 135 NaCl, 5.6 KCl, 1.2 MgCl2, 1 CaCl2, 5 glucose, 10 HEPES and pH 7.3 adjusted with KOH. For perforated patch membrane potential recording, the pipette solution contained (in mM): 100 K-gluconate, 35 KCl, 5 glucose, 0.5 EGTA, 10 HEPES, 200 μg/ml nystatin (Sigma, St. Louis, Mo., USA) and pH 7.2. For conventional whole-cell current recording, the pipette solution contained (in mM): 100 K-gluconate, 35 KCl, 1.2 MgCl2, 5 glucose, 0.5 EGTA, 10 HEPES and pH 7.2. For cell-attached and inside-out single channel recordings, the pipette solution contained (in mM): 135 KCl, 1.2 MgCl2, 5 glucose, 0.5 EGTA, 10 HEPES and pH 7.3. The ionic composition of the solution inside the membrane (bath solution) in inside-out recordings was the same as the pipette solution, but the pH of this solution was 7.2. When performing inside-out recordings, ATP was added to the bath solution at various concentrations.

[4] = test system: rat β-cells; experiment: Fura-2 Ca2+ imaging of intracellular Ca2+ concentrations; format: cell-based; conditions: 100 μM bath-applied; sensitive to nifedipine
Description: Fura-2 Ca^2+ imaging. Isolated islets were placed in a glass-bottom culture dish and then loaded with a HEPES buffer solution (in mM: NaCl 140, KCl 4.7, MgCl2 1.2, CaCl2 1.0, glucose 10 and HEPES 10) containing 1 μM fura-2/AM (Dojin, Kumamoto, Japan) for 20 min at room temperature. Ca^+ images were captured using an inverted microscope with 40× Plan-Neofluar objectives (Axiovert 135, Zeiss, Oberkochen, Germany), a silicon intensifier target camera and recorded on a fluorescence-imaging system (Argus 50/CA, Hamamatsu Photonics, Hamamatsu, Japan). Excitation wavelengths were 340 nm and 380 nm, selected from a Xenon light source, and emission wavelength was 510 nm. A change in free intracellular Ca^2+ concentration ([Ca^2+]i) was calculated based on the change in ratio of two fluorescence intensities, F340/F380 (24). All microfluorimetric experiments were carried out at room temperature (22±1° C.).
Iptakalim elevated intracellular Ca^2+ concentrations. Referring to FIGS. 15-18, in order to test whether iptakalim-induced membrane depolarization triggers Ca^2+ influx through voltage-sensitive Ca^2+ channels, intracellular Ca^2+ concentrations were measured using fura-2 florescence imaging.

[5] = test system: rat pancreatic islets; experiment: Measurement of insulin release from isolated islets (RIA); format: cell-based; conditions: versus basal at 5.5 mM glucose
Description: Measurement of insulin release. Isolated islets were hand-picked under microscopy, and ten islets were distributed to each 35-mm Petri dish with 3 ml of HBSS containing 5.5 mM glucose, 20 mM HEPES, and 2% BSA. After pre-incubation for 60 min, islets were exposed to 100 nM BIM for 60 min, and then stimulated by high glucose (22.5 mM), tolbutamide (0.5 mM) or iptakalim (0.1 mM) for 30 min. Before and after glucose stimulation, some samples were collected for measurement of immuno-reactive insulin (IRI), and stored at −20° C. until the assay. IRI was measured by RIA using anti-human insulin antibody with rat insulin standard (Radio-immunoassay Kit, Insulin “Eiken”, Tokyo Japan).
Iptakalim increased insulin release from rat pancreatic islets. Turning finally to FIG. 19, the effects of iptakalim were examined on insulin release. […] With glucose at 5.5 mM in the external solution, basal insulin secretion was observed. Application of 22.5 mM glucose increased insulin secretion about 3-fold (p<0.01, n=6), 500 μM tolbutamide increased insulin secretion about 2.5-fold (p<0.01, n=6), and 100 μM iptakalim increased insulin secretion about 1.5-fold (p<0.05, n=8). Each group was averaged from 5-7 cells tested. Vertical bars indicate SE.

[6] = target: T2, Kir6.2/SUR1 (Homo sapiens, UniProt Q09428+Q14654); experiment: Transfected Kir6.2/SUR1 cell line (HEK 293), data not shown; format: cell-based
T2 construct: expressed in transfected cells; host or cells: HEK 293
T2 sequence (Q14654 whole entry): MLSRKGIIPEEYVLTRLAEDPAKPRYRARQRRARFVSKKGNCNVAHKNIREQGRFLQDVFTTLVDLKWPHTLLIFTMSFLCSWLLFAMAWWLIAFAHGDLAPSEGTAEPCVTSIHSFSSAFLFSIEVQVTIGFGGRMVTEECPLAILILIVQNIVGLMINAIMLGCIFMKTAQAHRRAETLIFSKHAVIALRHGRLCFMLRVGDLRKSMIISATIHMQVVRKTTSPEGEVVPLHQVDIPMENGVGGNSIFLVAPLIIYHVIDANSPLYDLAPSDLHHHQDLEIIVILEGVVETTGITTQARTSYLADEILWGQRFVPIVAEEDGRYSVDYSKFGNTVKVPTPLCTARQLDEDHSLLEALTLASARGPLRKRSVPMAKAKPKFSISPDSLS
T2 sequence (Q09428 whole entry): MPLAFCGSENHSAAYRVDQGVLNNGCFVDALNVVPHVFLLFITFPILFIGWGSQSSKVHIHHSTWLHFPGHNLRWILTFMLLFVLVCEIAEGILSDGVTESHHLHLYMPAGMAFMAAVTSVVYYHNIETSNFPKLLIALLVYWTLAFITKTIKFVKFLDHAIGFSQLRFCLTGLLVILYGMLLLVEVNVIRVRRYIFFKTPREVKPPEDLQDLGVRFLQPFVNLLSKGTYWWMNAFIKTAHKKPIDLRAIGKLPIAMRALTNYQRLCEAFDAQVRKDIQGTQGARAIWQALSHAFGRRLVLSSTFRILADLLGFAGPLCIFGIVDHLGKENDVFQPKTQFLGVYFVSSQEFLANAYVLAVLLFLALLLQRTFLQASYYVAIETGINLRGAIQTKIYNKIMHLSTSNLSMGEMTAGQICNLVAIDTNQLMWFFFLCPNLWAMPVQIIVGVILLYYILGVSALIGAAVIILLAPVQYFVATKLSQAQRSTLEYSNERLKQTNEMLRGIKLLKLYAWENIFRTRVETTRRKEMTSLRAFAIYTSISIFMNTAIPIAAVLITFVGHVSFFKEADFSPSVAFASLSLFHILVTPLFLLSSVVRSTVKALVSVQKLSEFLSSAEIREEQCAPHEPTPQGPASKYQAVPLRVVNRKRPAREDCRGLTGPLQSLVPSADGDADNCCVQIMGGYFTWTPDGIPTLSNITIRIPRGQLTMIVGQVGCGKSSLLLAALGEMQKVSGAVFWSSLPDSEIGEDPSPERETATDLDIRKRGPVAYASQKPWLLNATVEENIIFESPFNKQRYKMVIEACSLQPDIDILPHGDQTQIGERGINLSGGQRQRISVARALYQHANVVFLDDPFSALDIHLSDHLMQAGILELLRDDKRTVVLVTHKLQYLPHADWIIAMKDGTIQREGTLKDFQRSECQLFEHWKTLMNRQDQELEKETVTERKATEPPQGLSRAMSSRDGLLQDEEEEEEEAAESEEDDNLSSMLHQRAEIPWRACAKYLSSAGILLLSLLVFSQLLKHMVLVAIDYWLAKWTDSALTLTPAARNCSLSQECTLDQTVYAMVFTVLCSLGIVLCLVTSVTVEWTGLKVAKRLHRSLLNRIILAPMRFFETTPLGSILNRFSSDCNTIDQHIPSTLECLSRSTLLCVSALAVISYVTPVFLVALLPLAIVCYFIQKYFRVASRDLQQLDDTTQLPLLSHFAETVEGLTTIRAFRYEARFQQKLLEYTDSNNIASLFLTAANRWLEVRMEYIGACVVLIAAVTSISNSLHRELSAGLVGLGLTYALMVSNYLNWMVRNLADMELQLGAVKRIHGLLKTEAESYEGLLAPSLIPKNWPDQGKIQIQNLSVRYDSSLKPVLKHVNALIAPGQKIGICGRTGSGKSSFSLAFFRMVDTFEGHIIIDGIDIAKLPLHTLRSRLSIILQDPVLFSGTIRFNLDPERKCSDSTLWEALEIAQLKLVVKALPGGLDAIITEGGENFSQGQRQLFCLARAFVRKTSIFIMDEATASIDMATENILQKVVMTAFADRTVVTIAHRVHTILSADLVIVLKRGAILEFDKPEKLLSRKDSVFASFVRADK
From the text: It is well known that KATP channels are expressed in a variety of tissues with different SUR subunits. For instance, cardiovascular KATP channels are formed by Kir6.2-SUR2A, pancreatic β-cell KATP channels are formed by Kir6.2-SUR1, while midbrain dopamine neurons are formed by Kir6.2-SUR1 (15,25-27) or Kir6.2-SUR2B. This diversity in SUR subunit expression results in different sensibilities to metabolic stress agents and KATP channel openers.

[7] = test system: smooth muscle cells isolated from pulmonary artery; conditions: patch-clamp whole-cell; also isolated rat aorta denuded vascular endothelium; cited from earlier work
[8] = test system: KATP channel; conditions: cited from earlier work
[9] = test system: primary cultured hippocampal neurons; conditions: K+, but not Na+ and Ca2+; cited from earlier work
[10] = cited from earlier work
[11] = target: T1, β-cell KATP channels; experiment: Conventional whole-cell voltage-clamp, ramp pulse-induced KATP channel currents; format: cell-based; set-up: the effects of iptakalim on KATP channels expressed in rat pancreatic β-cells were examined; endogenous in cells; host or cells: primary pancreatic β-cells from male adult Wistar rats; conditions: for effect on ramp pulse-induced KATP channel whole-cell current: ramp −90 to −50 mV, glucose 5.5 mM
Description: as §1
as §2, with “The ionic composition of the solution inside the membrane (bath solution) in inside-out recordings was the same as the pipette solution, but the pH of this solution was 7.2. When performing inside-out recordings, ATP was added to the bath solution at various concentrations.” left out

[12] = target: T1, β-cell KATP channels; experiment: Inside-out patch single channel recording of KATP channels; format: biochemical; set-up: the effects of iptakalim on KATP channels expressed in rat pancreatic β-cells were examined; endogenous in cells; host or cells: primary pancreatic β-cells from male adult Wistar rats; conditions: 100 μM
Description: Pancreatic β-cell isolation. Isolation of rat islets was performed as previously described. In short, male adult rats (Wistar) were anesthetized with diethyl ether, and 10 ml of Hank's buffered saline (HBSS) containing collagenase (200 U/ml, Wako Chem., Japan) was injected into the common bile duct. The pancreas, swollen with digestion solution, was quickly excised and incubated in a plastic culture bottle for 20 min at 37° C. The suspension obtained by shaking the bottle was filtered through 0.5 mm metal mesh and washed with HBSS, which included 2% bovine serum albumin (BSA). […] After washing with HBSS, which contained 2% BSA, islets were cultured for 24 h with 5% CO2 in the tissue culture medium. Separation of islets was carried out using dispase (1000 U/ml, Godo Shusei, Japan) as previously described. Separated cells were again cultured for 1-4 days. […] Patch-clamp recordings. Cultured β-cells were kept in a 35-mm Petri dish, and the dish was placed on the stage of an inverted microscope (IMT-2, Olympus, Tokyo, Japan). Membrane potentials and membrane currents were measured using a patch-clamp amplifier (EPC-7, List Electronic, Darmstadt, Germany). […] Data of single channel currents were low-pass filtered at 1 KHz, digitized at 10 KHz and analyzed using a single channel current analysis program (Clampfit 9.2, Axon Instruments, Foster City, Calif.). […]

[13] = target: T1, β-cell KATP channels; experiment: Preliminary experiments on β-cell KATP channels (data not shown); format: cell-based; set-up: endogenous in cells; host or cells: β-cells (preparation not described for these experiments)
[14] = 100 μM bath-application, Vp 0 mV

SMILES: CCC(C)(C)N=C(NC#N)Nc1cccnc1 [P1075]
- displacement of [3H]iptakalim binding [1]: displaced

SMILES: CC1=NS(=O)(=O)c2cc(Cl)ccc2N1 [diazoxide, reference compound]
- effect on membrane potential [2]: remarkably hyperpolarized the membrane
- effect on KATP channel activity [3, 14]: dramatically enhanced KATP channel activity

SMILES: CC(C)NC(C)(C)C(C)C.Cl [iptakalim, N-(1-methylethyl)-1,1,2-trimethyl-propylamine hydrochloride]
- effect on membrane potential and action potential firing ([2]; 5.5 mM glucose in external solution): slowly depolarized the membrane and elicited action potential firing
- effect on membrane potential [2]: clearly depolarized the membrane
- effect on intracellular Ca2+ concentrations [4]: induced elevation of intracellular Ca^2+ concentrations
- increase of insulin secretion ([5]; 100 μM): about 1.5 fold
- sensitivity of Kir6.2/SUR1 channels (opening) [6]: insensitivity
- effect on K+ currents [7]: significantly enhanced K^+ currents
- displacement of specific binding of [3H]P1075 [8]: displaced by iptakalim in a concentration-dependent manner
- effect on voltage-activated currents [9]: selectively enhanced voltage-activated K^+
- water solubility [10]: water-soluble
- effect on ramp pulse-induced KATP channel whole-cell current ([11]; 100 μM bath-application): reduced the magnitude of the KATP channel current
- Hill coefficient of block of KATP channel current ([11]; whole-cell, concentration-inhibition curve): 0.7
- IC50 ([11]; whole-cell, concentration-inhibition curve, read-out: IC50 of block of KATP channel current): 3.3 µM
- effect on KATP channel activity [3, 14]: reduced channel activities
- effect on KATP channel activity ([3]; 100 μM, Vp −60 mV): reduced KATP channel activity
- open-time probability of KATP channels ([3]; during application of 100 μM, before application 0.43±0.0438, Vp 0 mV): 0.121±0.026
- current amplitude of KATP channels ([3]; during application of 100 μM, before application 3.51±0.17 pA, Vp 0 mV): 3.16±0.14 pA
- mean open time of KATP channels ([3]; during application of 100 μM, before application 5.95±0.62 ms, Vp 0 mV): 8.78 ± 0.81 ms
- mean open-time probability ([12]; absence of ATP, reduced from 0.359±0.065): 0.145±0.041
- mean open-time probability ([12]; presence of 10 μM ATP, reduced from 0.222±0.042): 0.103±0.029

SMILES: CC(N/C(=N\C#N)Nc1ccncc1)C(C)(C)C (stereo not shown) [pinacidil]
- displacement of [3H]iptakalim binding [1]: displaced
- effect on β-cell KATP channels [13]: showed inhibition of β-cell KATP channels

SMILES: CCCCNC(=O)NS(=O)(=O)c1ccc(C)cc1 [tolbutamide, reference compound]
- increase of insulin secretion ([5]; 500 μM): about 2.5 fold
- effect on ramp pulse-induced KATP channel whole-cell current ([11]; 500 μM): reversibly abolished the size of the current
- effect on KATP channel activity ([3]; 500 μM bath-application, Vp 0 mV): completely abolished KATP channel activity
- sensitivity of spontaneous single channel activities ([3]; 500 μM bath-applied, Vp −60 mV): very sensitive
